Assay: in vivo
Details: po

bioavailability: ~98%
SMILES: Cc1cnc(NC(=O)C2=C(O)c3ccccc3S(=O)(=O)N2C)s1 [meloxicam]

— US20140287048A1, “PASTE COMPRISING NON-STEROIDAL ANTI-INFLAMMATORY DRUG” (priority 2011, published 2014)
